Assay results published in ChEMBL document CHEMBL5036317, “Identification of Unique Quinazolone Thiazoles as Novel Structural Scaffolds for Potential Gram-Negative Bacterial Conquerors” (J Med Chem, 2021).
In brackets after ≈: the same amount, converted by molar mass.

How the values were obtained:
Pseudomonas aeruginosa [1] = experiment: Antibacterial activity against Pseudomonas aeruginosa ATCC 27853 assessed as inhibition of bacterial growth measured after 24 hrs by two-fold serial dilution method; format: functional
[2] = Haemolytic activity in human erythrocytes incubated for 2 hrs; format: ADME, cell-based, Erythrocyte
Klebsiella pneumoniae = experiment: Antibacterial activity against Klebsiella pneumoniae assessed as inhibition of bacterial growth measured after 24 hrs by two-fold serial dilution method; format: functional
Staphylococcus aureus [3] = experiment: Antibacterial activity against Staphylococcus aureus assessed as inhibition of bacterial growth measured after 24 hrs by two-fold serial dilution method; format: functional
Escherichia coli [4] = experiment: Antibacterial activity against Escherichia coli assessed as inhibition of bacterial growth measured after 24 hrs by two-fold serial dilution method; format: functional
Staphylococcus aureus [5] = experiment: Antibacterial activity against Staphylococcus aureus ATCC 29213 assessed as inhibition of bacterial growth measured after 24 hrs by two-fold serial dilution method; format: functional
Staphylococcus aureus [6] = experiment: Antibacterial activity against Staphylococcus aureus ATCC 25923 assessed as inhibition of bacterial growth measured after 24 hrs by two-fold serial dilution method; format: functional
Pseudomonas aeruginosa [7] = experiment: Antibacterial activity against Pseudomonas aeruginosa assessed as inhibition of bacterial growth measured after 24 hrs by two-fold serial dilution method; format: functional
Acinetobacter baumannii = experiment: Antibacterial activity against Acinetobacter baumanii assessed as inhibition of bacterial growth measured after 24 hrs by two-fold serial dilution method; format: functional
Enterococcus faecalis = experiment: Antibacterial activity against Enterococcus faecalis assessed as inhibition of bacterial growth measured after 24 hrs by two-fold serial dilution method; format: functional
Escherichia coli [8] = experiment: Antibacterial activity against Escherichia coli ATCC 25922 assessed as inhibition of bacterial growth measured after 24 hrs by two-fold serial dilution method; format: functional
Staphylococcus aureus [9] = experiment: Antibacterial activity against methicillin-resistant Staphylococcus aureus assessed as inhibition of bacterial growth measured after 24 hrs by two-fold serial dilution method; format: functional

| SMILES | MIC (Pseudomonas aeruginosa [1]) | HC50 at 2 h [2] | MIC (Klebsiella pneumoniae) | MIC (Staphylococcus aureus [3]) | MIC (Escherichia coli [4]) | MIC (Staphylococcus aureus [5]) | MIC (Staphylococcus aureus [6]) | MIC (Pseudomonas aeruginosa [7]) | MIC (Acinetobacter baumannii) | MIC (Enterococcus faecalis) | MIC (Escherichia coli [8]) | MIC (Staphylococcus aureus [9]) |
| --- | --- | --- | --- | --- | --- | --- | --- | --- | --- | --- | --- | --- |
| O=C(/C(=C/c1ccc(C(F)(F)F)cc1)n1cnc2cc(F)ccc2c1=O)c1nccs1 | 4 µg/mL (≈ 8.98 µM) | > 250 µg/mL | 2 µg/mL (≈ 4.49 µM) | 16 µg/mL (≈ 35.9 µM) | 8 µg/mL (≈ 18 µM) | 4 µg/mL (≈ 8.98 µM) | 2 µg/mL (≈ 4.49 µM) | 16 µg/mL (≈ 35.9 µM) | 1 µg/mL (≈ 2.25 µM) | 4 µg/mL (≈ 8.98 µM) | 4 µg/mL (≈ 8.98 µM) | 8 µg/mL (≈ 18 µM) |
| O=C(/C(=C/c1c[nH]c2cc(Cl)ccc12)n1cnc2cc(Cl)ccc2c1=O)c1nccs1 | 64 µg/mL (≈ 137 µM) | > 250 µg/mL | 64 µg/mL (≈ 137 µM) | 512 µg/mL (≈ 1100 µM) | 64 µg/mL (≈ 137 µM) | 2 µg/mL (≈ 4.28 µM) | 2 µg/mL (≈ 4.28 µM) | 256 µg/mL (≈ 548 µM) | 512 µg/mL (≈ 1100 µM) | 2 µg/mL (≈ 4.28 µM) | 2 µg/mL (≈ 4.28 µM) | 32 µg/mL (≈ 68.5 µM) |
| Cc1ccc(/C=C(/C(=O)c2nccs2)n2cnc3cc(Cl)ccc3c2=O)c(C)c1 | 64 µg/mL (≈ 152 µM) | 203 µg/mL | 512 µg/mL (≈ 1210 µM) | 512 µg/mL (≈ 1210 µM) | 512 µg/mL (≈ 1210 µM) | 4 µg/mL (≈ 9.48 µM) | 512 µg/mL (≈ 1210 µM) | 64 µg/mL (≈ 152 µM) | 128 µg/mL (≈ 303 µM) | 512 µg/mL (≈ 1210 µM) | 64 µg/mL (≈ 152 µM) | 512 µg/mL (≈ 1210 µM) |
| O=C(/C(=C/c1ccc([N+](=O)[O-])cc1)n1cnc2cc(Cl)ccc2c1=O)c1nccs1 | 4 µg/mL (≈ 9.11 µM) | > 250 µg/mL | 16 µg/mL (≈ 36.5 µM) | 2 µg/mL (≈ 4.56 µM) | 64 µg/mL (≈ 146 µM) | 2 µg/mL (≈ 4.56 µM) | 4 µg/mL (≈ 9.11 µM) | 4 µg/mL (≈ 9.11 µM) | 4 µg/mL (≈ 9.11 µM) | 2 µg/mL (≈ 4.56 µM) | 2 µg/mL (≈ 4.56 µM) | 8 µg/mL (≈ 18.2 µM) |
| O=C(/C(=C/c1ccccc1Cl)n1cnc2cc(Cl)ccc2c1=O)c1nccs1 | 2 µg/mL (≈ 4.67 µM) | 195 µg/mL | 4 µg/mL (≈ 9.34 µM) | 16 µg/mL (≈ 37.4 µM) | 8 µg/mL (≈ 18.7 µM) | 4 µg/mL (≈ 9.34 µM) | 1 µg/mL (≈ 2.33 µM) | 2 µg/mL (≈ 4.67 µM) | 512 µg/mL (≈ 1200 µM) | 1 µg/mL (≈ 2.33 µM) | 2 µg/mL (≈ 4.67 µM) | 2 µg/mL (≈ 4.67 µM) |
| O=C(/C(=C/c1ccc[nH]1)n1cnc2cc(Cl)ccc2c1=O)c1nccs1 | 256 µg/mL (≈ 669 µM) | 203 µg/mL | 256 µg/mL (≈ 669 µM) | 512 µg/mL (≈ 1340 µM) | 256 µg/mL (≈ 669 µM) | 2 µg/mL (≈ 5.22 µM) | 512 µg/mL (≈ 1340 µM) | 256 µg/mL (≈ 669 µM) | 64 µg/mL (≈ 167 µM) | 512 µg/mL (≈ 1340 µM) | 64 µg/mL (≈ 167 µM) | 512 µg/mL (≈ 1340 µM) |
| O=C(/C(=C/c1csc2ccccc12)n1cnc2cc(Cl)ccc2c1=O)c1nccs1 | 16 µg/mL (≈ 35.6 µM) | > 250 µg/mL | 128 µg/mL (≈ 284 µM) | 512 µg/mL (≈ 1140 µM) | 16 µg/mL (≈ 35.6 µM) | 16 µg/mL (≈ 35.6 µM) | 256 µg/mL (≈ 569 µM) | 32 µg/mL (≈ 71.1 µM) | 32 µg/mL (≈ 71.1 µM) | 512 µg/mL (≈ 1140 µM) | 16 µg/mL (≈ 35.6 µM) | 512 µg/mL (≈ 1140 µM) |
| O=C(/C(=C/c1ccc(C(F)(F)F)cc1)n1cnc2c(Cl)cc(Cl)cc2c1=O)c1nccs1 | 1 µg/mL (≈ 2.01 µM) | > 250 µg/mL | 1 µg/mL (≈ 2.01 µM) | 128 µg/mL (≈ 258 µM) | 4 µg/mL (≈ 8.06 µM) | 8 µg/mL (≈ 16.1 µM) | 8 µg/mL (≈ 16.1 µM) | 8 µg/mL (≈ 16.1 µM) | 1 µg/mL (≈ 2.01 µM) | 64 µg/mL (≈ 129 µM) | 4 µg/mL (≈ 8.06 µM) | 4 µg/mL (≈ 8.06 µM) |
| O=C(/C(=C/c1ccc(F)cc1)n1cnc2cc(Cl)ccc2c1=O)c1nccs1 | 2 µg/mL (≈ 4.86 µM) | > 250 µg/mL | 512 µg/mL (≈ 1240 µM) | 8 µg/mL (≈ 19.4 µM) | 16 µg/mL (≈ 38.8 µM) | 2 µg/mL (≈ 4.86 µM) | 4 µg/mL (≈ 9.71 µM) | 2 µg/mL (≈ 4.86 µM) | 256 µg/mL (≈ 622 µM) | 4 µg/mL (≈ 9.71 µM) | 4 µg/mL (≈ 9.71 µM) | 4 µg/mL (≈ 9.71 µM) |
| COc1ccc(/C=C(/C(=O)c2nccs2)n2cnc3cc(Cl)ccc3c2=O)cc1 | 32 µg/mL (≈ 75.5 µM) | 245 µg/mL | 512 µg/mL (≈ 1210 µM) | 64 µg/mL (≈ 151 µM) | 32 µg/mL (≈ 75.5 µM) | 4 µg/mL (≈ 9.44 µM) | 4 µg/mL (≈ 9.44 µM) | 32 µg/mL (≈ 75.5 µM) | 512 µg/mL (≈ 1210 µM) | 32 µg/mL (≈ 75.5 µM) | 32 µg/mL (≈ 75.5 µM) | 8 µg/mL (≈ 18.9 µM) |
| O=C(/C(=C/c1ccc(N2CCCCC2)cc1F)n1cnc2cc(Cl)ccc2c1=O)c1nccs1 | 32 µg/mL (≈ 64.6 µM) | 181 µg/mL | 512 µg/mL (≈ 1030 µM) | 512 µg/mL (≈ 1030 µM) | 512 µg/mL (≈ 1030 µM) | 2 µg/mL (≈ 4.04 µM) | 512 µg/mL (≈ 1030 µM) | 128 µg/mL (≈ 259 µM) | 128 µg/mL (≈ 259 µM) | 512 µg/mL (≈ 1030 µM) | 512 µg/mL (≈ 1030 µM) | 512 µg/mL (≈ 1030 µM) |
| O=C(/C(=C/c1ccccc1)n1cnc2cc(Cl)ccc2c1=O)c1nccs1 | 2 µg/mL (≈ 5.08 µM) | 222 µg/mL | 2 µg/mL (≈ 5.08 µM) | 8 µg/mL (≈ 20.3 µM) | 8 µg/mL (≈ 20.3 µM) | 2 µg/mL (≈ 5.08 µM) | 2 µg/mL (≈ 5.08 µM) | 4 µg/mL (≈ 10.2 µM) | 4 µg/mL (≈ 10.2 µM) | 1 µg/mL (≈ 2.54 µM) | 4 µg/mL (≈ 10.2 µM) | 4 µg/mL (≈ 10.2 µM) |
| O=C(/C(=C/c1c[nH]c2ccccc12)n1cnc2cc(Cl)ccc2c1=O)c1nccs1 | 64 µg/mL (≈ 148 µM) | > 250 µg/mL | 128 µg/mL (≈ 296 µM) | 64 µg/mL (≈ 148 µM) | 64 µg/mL (≈ 148 µM) | 64 µg/mL (≈ 148 µM) | 64 µg/mL (≈ 148 µM) | 256 µg/mL (≈ 591 µM) | 256 µg/mL (≈ 591 µM) | 256 µg/mL (≈ 591 µM) | 64 µg/mL (≈ 148 µM) | 256 µg/mL (≈ 591 µM) |
